From article PMC3551771, “Pharmacological modulation of histone demethylase activity by a small molecule isolated from subcritical water extracts of Sasa senanensis leaves prolongs the lifespan of Drosophila melanogaster” (BMC Complementary and Alternative Medicine, 2012) come the findings set out here.

Test in all cases: fluorogenic JMJD demethylase assay kit, biotinylated histone H3 peptide substrate
Common to all, as to format: biochemical

In assay [1] the target is T1, JMJD2A (Homo sapiens, UniProt O75164).
T1 construct: gene KDM4A
T1 sequence (O75164 2-1064): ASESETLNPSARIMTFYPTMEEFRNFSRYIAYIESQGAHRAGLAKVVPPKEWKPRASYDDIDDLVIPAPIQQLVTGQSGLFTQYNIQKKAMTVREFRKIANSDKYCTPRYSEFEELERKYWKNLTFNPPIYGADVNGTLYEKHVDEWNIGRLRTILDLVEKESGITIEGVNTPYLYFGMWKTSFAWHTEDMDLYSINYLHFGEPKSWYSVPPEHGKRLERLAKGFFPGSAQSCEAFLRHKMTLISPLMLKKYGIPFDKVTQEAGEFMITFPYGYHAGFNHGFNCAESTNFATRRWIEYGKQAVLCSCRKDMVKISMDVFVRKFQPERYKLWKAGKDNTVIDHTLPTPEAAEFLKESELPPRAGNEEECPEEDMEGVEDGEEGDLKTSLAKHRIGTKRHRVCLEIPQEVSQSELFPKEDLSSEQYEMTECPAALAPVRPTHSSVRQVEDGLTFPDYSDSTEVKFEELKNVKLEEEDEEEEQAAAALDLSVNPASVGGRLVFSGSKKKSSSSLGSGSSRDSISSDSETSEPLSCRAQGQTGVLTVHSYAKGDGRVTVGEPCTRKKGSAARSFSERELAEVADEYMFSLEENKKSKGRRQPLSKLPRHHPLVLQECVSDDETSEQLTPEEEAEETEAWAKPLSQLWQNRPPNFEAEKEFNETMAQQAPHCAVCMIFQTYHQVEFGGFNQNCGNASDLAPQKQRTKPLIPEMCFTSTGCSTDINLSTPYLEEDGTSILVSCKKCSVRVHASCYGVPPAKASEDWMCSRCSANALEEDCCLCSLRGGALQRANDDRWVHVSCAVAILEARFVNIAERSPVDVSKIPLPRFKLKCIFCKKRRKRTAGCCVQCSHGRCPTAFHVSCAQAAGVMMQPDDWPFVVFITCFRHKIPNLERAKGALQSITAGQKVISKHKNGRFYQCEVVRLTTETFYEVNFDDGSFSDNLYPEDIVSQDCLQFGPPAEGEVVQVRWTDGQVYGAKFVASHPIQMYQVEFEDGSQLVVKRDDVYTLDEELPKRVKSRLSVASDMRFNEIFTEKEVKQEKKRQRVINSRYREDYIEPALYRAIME

Assay [2] addresses T2, JMJD2B (Homo sapiens, UniProt O94953).
T2 construct: gene KDM4B
T2 sequence (O94953 1-1096): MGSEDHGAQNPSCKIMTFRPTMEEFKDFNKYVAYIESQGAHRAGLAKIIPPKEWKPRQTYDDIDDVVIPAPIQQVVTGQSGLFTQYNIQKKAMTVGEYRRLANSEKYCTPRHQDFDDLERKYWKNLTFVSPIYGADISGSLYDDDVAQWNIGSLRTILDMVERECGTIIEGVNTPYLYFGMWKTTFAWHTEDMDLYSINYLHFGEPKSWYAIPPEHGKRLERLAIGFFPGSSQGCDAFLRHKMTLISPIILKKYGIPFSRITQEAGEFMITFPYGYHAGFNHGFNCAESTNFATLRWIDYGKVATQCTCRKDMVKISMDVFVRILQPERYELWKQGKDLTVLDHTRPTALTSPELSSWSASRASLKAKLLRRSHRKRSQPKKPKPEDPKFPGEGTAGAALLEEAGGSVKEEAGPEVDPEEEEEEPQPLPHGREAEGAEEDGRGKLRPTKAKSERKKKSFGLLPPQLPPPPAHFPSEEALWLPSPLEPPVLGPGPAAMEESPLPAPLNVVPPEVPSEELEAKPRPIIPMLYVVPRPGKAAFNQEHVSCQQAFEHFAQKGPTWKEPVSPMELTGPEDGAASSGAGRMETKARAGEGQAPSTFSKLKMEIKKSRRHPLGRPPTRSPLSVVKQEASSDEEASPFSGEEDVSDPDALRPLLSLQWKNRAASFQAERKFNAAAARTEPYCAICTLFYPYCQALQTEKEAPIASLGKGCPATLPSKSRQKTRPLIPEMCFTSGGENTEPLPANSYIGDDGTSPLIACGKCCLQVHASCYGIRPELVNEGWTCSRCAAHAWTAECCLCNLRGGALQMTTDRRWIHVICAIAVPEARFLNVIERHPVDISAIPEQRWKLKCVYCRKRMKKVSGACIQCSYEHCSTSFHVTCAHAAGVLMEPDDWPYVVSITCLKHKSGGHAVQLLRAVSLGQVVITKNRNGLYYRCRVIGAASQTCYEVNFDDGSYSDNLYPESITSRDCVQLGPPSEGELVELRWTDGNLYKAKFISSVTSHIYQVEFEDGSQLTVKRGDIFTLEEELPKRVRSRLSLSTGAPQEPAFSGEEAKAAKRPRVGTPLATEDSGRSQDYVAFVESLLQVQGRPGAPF
The text has this: IC50 values are mean ± SEM

For assay [3], the target named is T3, JMJD2C (Homo sapiens, UniProt Q9H3R0).
T3 construct: gene KDM4C
T3 sequence (Q9H3R0 1-1056): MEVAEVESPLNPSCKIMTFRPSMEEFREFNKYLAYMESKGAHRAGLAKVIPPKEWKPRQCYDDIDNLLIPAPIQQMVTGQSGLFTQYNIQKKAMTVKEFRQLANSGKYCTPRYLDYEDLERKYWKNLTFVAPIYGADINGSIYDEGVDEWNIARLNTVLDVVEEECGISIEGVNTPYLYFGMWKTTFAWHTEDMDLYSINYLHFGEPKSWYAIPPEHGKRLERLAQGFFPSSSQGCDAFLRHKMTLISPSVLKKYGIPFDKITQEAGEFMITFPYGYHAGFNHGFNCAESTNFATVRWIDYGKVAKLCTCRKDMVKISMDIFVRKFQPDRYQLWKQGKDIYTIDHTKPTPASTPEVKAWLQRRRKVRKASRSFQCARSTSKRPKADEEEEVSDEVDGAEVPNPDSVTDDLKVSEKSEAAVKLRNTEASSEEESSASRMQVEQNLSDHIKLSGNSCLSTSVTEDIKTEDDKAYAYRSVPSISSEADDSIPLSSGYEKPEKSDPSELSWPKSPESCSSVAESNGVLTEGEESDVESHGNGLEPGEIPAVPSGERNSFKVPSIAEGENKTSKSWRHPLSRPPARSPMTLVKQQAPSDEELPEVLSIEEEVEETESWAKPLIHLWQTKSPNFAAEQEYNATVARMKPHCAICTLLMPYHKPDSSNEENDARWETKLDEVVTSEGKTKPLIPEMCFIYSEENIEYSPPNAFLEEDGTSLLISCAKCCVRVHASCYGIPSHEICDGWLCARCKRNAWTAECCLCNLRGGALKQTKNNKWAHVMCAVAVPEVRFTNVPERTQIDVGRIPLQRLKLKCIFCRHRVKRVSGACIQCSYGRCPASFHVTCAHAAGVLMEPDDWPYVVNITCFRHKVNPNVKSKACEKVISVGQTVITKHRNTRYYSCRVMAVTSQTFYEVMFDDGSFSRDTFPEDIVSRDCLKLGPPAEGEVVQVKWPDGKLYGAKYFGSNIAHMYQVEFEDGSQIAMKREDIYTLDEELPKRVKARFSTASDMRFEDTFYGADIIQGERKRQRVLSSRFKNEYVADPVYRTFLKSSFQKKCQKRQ

For orientation: IC50 means the concentration that inhibits the measured activity by half. Higher therefore signals weaker potency. Turning to `O=Cc1ccc(O)c(O)c1` [PA, 3,4-dihydroxybenzaldehyde], the values for the IC50 in assay [1], in assay [2] and in assay [3] were 11.6 ± 1.5 µM, 38.6 ± 10 µM and 33.7 ± 7.8 µM, respectively.
